Tested on: virus-specific CD8 T cells
Set-up: species or system mice
Conditions: mouse, in vivo

Nc1ncn([C@H]2C[C@H](O)[C@@H](CO)O2)c(=O)n1 [DAC, 5-aza-2′-deoxycytidine]
Ki67+ virus-specific CD8 T cells: significant increase | T cell expansion: did not observe an enhancement | expansion of virus-specific T cells in spleen, lungs and liver: enhanced expansion | quantity of gp33-specific CD8 T cells in the peripheral blood: striking increase
